# From ChEMBL document CHEMBL3507680, “University of Dundee, Gates Library screen for HepG2 cell viability”
# Assay: Human HepG2 cell viability assay in 384 well format
# Type: toxicity, cell-based
# Design: dose 125 nL, time 70.5 hour; cytotoxicity at 70.5 h: concentration not given beside the values
# Conditions: HepG2 cells, read-out: Inhibition
row,Structure (SMILES),cytotoxicity at 70.5 h [%]
1,O=C1CC[C@H]2[C@H](CCN2C(=O)C2CCCO2)N1CCN1CCCC1 (stereo not given in full),-21.6
2,CCc1nc(C2CCCN2C(=O)CCCOc2cccc(F)c2)no1 (stereo not given),-18.6
3,Cc1cccc(S(=O)(=O)NC(=O)CN(C)Cc2ccccc2)c1,1.15
4,CC(=O)N1CCc2c(nc(N(C)C)nc2NCCC2CCCCO2)C1 (stereo not given),-5.03
5,O=C([C@@H]1COC[C@H]2CN(c3ccncn3)C[C@H]21)N1CCCCO1,-6.51
6,Cc1csc2c(N3CCC(NCCc4ccnn4C)CC3)ncnc12,6.94
7,COCCC(C)NS(=O)(=O)c1ccc(C)c(N(C)C)c1 (stereo not given),-2.25
8,NC(=O)C1CCN(CCc2ccc(NCc3ccsc3)cc2)CC1,-11.9
9,O=C(Cn1cc(C2CC2)nn1)N(Cc1cccs1)CC1CCCO1 (stereo not given),10.4
10,N#Cc1cccc(-c2ncnn2CC2(O)CCCCC2)c1,-3.16
11,O=C1CCC(=O)N1c1nn(Cc2c(F)cccc2Cl)cc1Cl,6.93
12,O=C([C@H]1CC[C@@H]2[C@@H](CCN2C2CCCC2)O1)N1CCOCC1,-12.8
13,Cc1cnn(CC2CCCN2C(=O)CCc2ccncc2)c1 (stereo not given),-1.24
14,CCCc1ccc(CN2C[C@H]3C(=O)N(CC4CC4)C[C@@]3(C(=O)O)C2)o1,-6.58
15,O=C(Nc1cccc(C(=O)OCC2CCCN2)c1)c1ccoc1 (stereo not given),5.78
16,CN(C(=O)CN1CCC(c2cc3ccccc3[nH]2)CC1)C1CC1,-8.97
17,CN(C)c1ncccc1CNC(=O)N1CCCC1c1ccsc1 (stereo not given),-16.3
18,COc1cc(CNC(=O)c2cc(Cl)ccc2F)ccn1,-5.8
19,CCc1ccc(CN2CCC3(CC2)C(=O)N(C)CCN3CC2CC2)cc1,-13.9
20,COCCOC1CCN(C(C(=O)O)c2ccc3c(c2)OCO3)CC1 (stereo not given),-6.06
21,O=C(c1cc2ccccc2s1)N1CCC(C(=O)O)(n2cccn2)CC1,-4.38
22,CCN(CC)CCCN1CCN(c2nc(C)cnc2C)CC1,-7.19
23,Cn1cc(C(=O)NC2CCN(Cc3ccn(C)c(=O)c3)CC2)cn1,-14

row,Structure (SMILES),cytotoxicity at 70.5 h [%]
1,CC(C)c1ccc(O)c(C(=O)NC2CCN(c3ncccn3)CC2)c1,-19.5
2,COc1ccc2c(c1)CC(NC(=O)NCc1cccs1)CO2 (stereo not given),-14.1
3,CCN1CCn2c(C)cnc2C12CCN(C(=O)CC(C)C)CC2,-2.3
4,CCCc1n[nH]c(=O)n1Cc1ccc(OC)cc1,12.2
5,O=C(NCCNc1ccccn1)N1CCC(O)CC1,3.99
6,N#CCCNC(=O)CSc1ccc(F)cc1F,-5.86
7,O=C(NCCO)Nc1c(F)cc(F)cc1-c1ccccc1,-10.7
8,Cc1nc(C2CCNCC2)cc(N2CCCC(C(=O)NCCCO)C2)n1 (stereo not given),10.6
9,CC(Cn1cccn1)NCc1nc(-c2ccsc2)no1 (stereo not given),5.46
10,Cc1nnc(SCCNC(=O)CC2CCc3ccccc32)s1 (stereo not given),-4.12
11,COc1cc(Br)c(S(=O)(=O)NC(=O)C(C)OC)cc1OC (stereo not given),-6.11
12,CCn1ccnc1CN1CCN(Cc2ccccn2)CC1C (stereo not given),9.97
13,CCc1cc(=O)[nH]c(-c2ccc(NC(C)CN3CCOCC3)nc2)n1 (stereo not given),-0.904
14,CCN(Cc1ncc(C(C)(C)C)o1)Cc1ccccc1C,-1.58
15,CCNc1cc(N2CCN(C(=O)c3ccc(OC)cc3)CC2)nc(C)n1,-2.56
16,CC(C)(C)c1cc(C[C@H]2CNCC[C@H]2CC(=O)N2CCCCC2)no1,-1.6
17,C1CN(c2nc(C3CC3)no2)CCN(C2CCOCC2)C1,-0.117
18,CC(C)n1cnc2c1C(C(=O)N1CCCC1)N(CC1CC1)CC2 (stereo not given),-1.74
19,COc1ncnc2c1CCN(CC1CCOC1)CC2 (stereo not given),-13.6
20,CCc1nc(CN2CCOC(Cn3cncn3)C2)no1 (stereo not given),16.6
21,Cn1cc(CC2CCN(C(=O)NCc3cn4ccsc4n3)C2)cn1 (stereo not given),23.7
22,OCC1CCCN1c1cc(NCCc2c[nH]c3ccccc23)ncn1 (stereo not given),1.16
23,Cc1cc(N2CCN(C(=O)c3cnn(C(C)C)c3)CC2)nc(N)n1,-4.23

row,Structure (SMILES),cytotoxicity at 70.5 h [%]
1,CCOCc1nnc2n1CCN(Cc1c(C)noc1C)CC2,16.5
2,O=C(NCCCc1ccccn1)c1cn(CCN2CCNCC2)nn1,-9.59
3,CS(=O)(=O)NCC(=O)N1CCCC1c1noc(C2CC2)n1 (stereo not given),-2.26
4,CCc1ccc(C2CCCCCN2C(=O)CNC(=O)NC2CC2)o1 (stereo not given),-1.33
5,Cc1ccccc1N1CCN(C(=O)c2cnc(N(C)C)nc2C)C(C)C1 (stereo not given),-7.48
6,CCn1nnc2c1C(COCC(=O)N(C)C)CN(Cc1ccco1)C2 (stereo not given),10.6
7,CCCc1noc(C[S+]([O-])CC(=O)NCc2ccccc2)n1 (stereo not given),15.8
8,CC(NC(=O)NCc1cccc(N2CCCC2=O)c1)c1ccccc1 (stereo not given),-12.2
9,COc1ccc(C(=O)NC(CC(=O)O)c2cccs2)c(OC)c1 (stereo not given),-11.6
10,O=C(c1ccccn1)N1CCc2ncc(Cn3cccn3)n2CC1,-7.08
11,CN1CCC(c2ncc3c(n2)CCN(C(=O)CC2C=CCC2)C3)CC1 (stereo not given),-7.45
12,Cc1nc2c(c(C)c1CC(=O)Nc1cccc(C#N)c1)c(=O)[nH]n2C,15.2
13,Cc1nc2ccccc2nc1NCc1nnc2n1CCC2,0.938
14,CCc1ccccc1Nc1noc2c1CN(C(=O)CCOC)CC2,18.8
15,COC(=O)c1cccc(S(=O)(=O)NCc2cccnc2N(C)C)c1,-2.85
16,CCc1nccn1C1CCCN(C(=O)c2cc3nc(C)ccc3o2)C1 (stereo not given),-2.05
17,CC1CN(C)c2ccccc2CN1C(=O)c1ccc[nH]1 (stereo not given),0.885
18,Cc1nn(C)cc1Cn1c(=O)ccc2ccccc21,-3.85
19,CC(=O)N1CCCC1c1cc(Nc2nnc(C)s2)nc(C)n1 (stereo not given),17.2
20,CC(C)Nc1cccc(CNC(=O)N2CCC[C@@H]2CO)c1,-2.37
21,CC(C)CN1CC(C(=O)NCCc2c[nH]cn2)CC1=O (stereo not given),-0.927
22,O=S(=O)(NCCCn1ccc2ccccc21)N1CCCCC1,16.7
23,CC(Nc1ccc(N2C(=O)CCCC2=O)cc1)c1ccc(C#N)cc1 (stereo not given),-6.87

row,Structure (SMILES),cytotoxicity at 70.5 h [%]
1,C[C@]12CCCCN(C(=O)c3ccccn3)[C@H]1CCCC(=O)N2,5.15
2,COc1ccnc(CN2CCCC(CCc3ccccc3)C2)c1OC (stereo not given),3.51
3,Cc1nc(CNC(=O)NCC(O)c2cccc(Cl)c2)cs1 (stereo not given),5.52
4,CC(=O)N1CCCN(C(=O)NCCCNS(C)(=O)=O)CC1,9.32
5,O=C(O)[C@]12CCCN(Cc3cccs3)C[C@H]1CN(c1ncccn1)C2,-9.42
6,O=S(=O)(NCCCn1cccn1)c1ccc2c(c1)CCC2,-5.82
7,CC(=O)Nc1nc(C(=O)NCc2ccc(N3CCOC(C)C3)nc2)cs1 (stereo not given),-7.71
8,Cc1cnc(C(=O)N2CCCC(c3nccn3Cc3cscn3)C2)cn1 (stereo not given),-3.23
9,CC(C)(C)CC(=O)NC(C)(C(N)=O)c1cccc(Cl)c1 (stereo not given),17.3
10,O=C1CC(NS(=O)(=O)N2CCOCC2)CN1Cc1ccccc1 (stereo not given),-5.68
11,OCC(CO)Nc1ccc2ccc(Cl)c(Cl)c2n1,19.4
12,CN(C)CCC1CN(C(=O)c2cccc3c2OCC3)CCO1 (stereo not given),30
13,CN(CCO)Cc1nnc(C2CCN(CC(C)(C)C)CC2)n1C,-4.91
14,O=C(NC[C@H]1OC[C@@H](NCc2ccccc2)[C@@H]1O)Nc1ccccc1,-3.94
15,COc1cccc(CNC(=O)c2cc(C)nc(N3CCCC3)n2)c1,17.7
16,O=C(Cc1ccc(F)cc1)NCCNS(=O)(=O)c1ccc(F)c(F)c1,-1.6
17,O=C(NCCNc1ncccn1)NCCc1c(F)cccc1F,-13.1
18,Cn1cc(C(=O)N2CCCC(C(=O)CCc3ccccc3)C2)cn1 (stereo not given),-23.4
19,Cc1ccnc(C(NC(=O)c2ccc(O)nc2C)C2CC2)n1 (stereo not given),16.3
20,Cc1ccc(CNC(=O)Cn2nc(-c3ccc(F)cc3)oc2=O)cc1F,-7.42
21,Cc1noc(C)c1CN(C)C(=O)NC(C)c1cccs1 (stereo not given),7.59
22,COCCN1CC[C@H]2OCC[C@@H](C(=O)Nc3cccnc3)[C@@H]2C1,53
23,Cc1ccc(N(CC(=O)N2CCCCC2)C(=O)C2CCCO2)cc1 (stereo not given),-1.14

row,Structure (SMILES),cytotoxicity at 70.5 h [%]
1,Cc1ccc(CN(C)c2cc(N3CCCC3CO)ncn2)s1 (stereo not given),-4.83
2,CC(C)c1ccc(OCC(=O)N(C)C)cc1,-9.35
3,c1cnc(N2CCC3(CCN(CC4CCOCC4)CC3)C2)nc1,0.659
4,CC(C)C1CN(Cc2c[nH]cn2)CCCN1CC1CC1 (stereo not given),-17.8
5,CC1(C(=O)N2CCOCC2)CN(C2CCCCC2)CCO1 (stereo not given),0.715
6,CCNC(=O)CC1CC2(CCN(C(C)=O)CC2)c2cc(F)ccc21 (stereo not given),-5.07
7,Cc1ccc(O)c(C(=O)N2CCCC2c2nncn2CC(C)C)c1 (stereo not given),-0.402
8,CCOC(=O)CCCN1CCCC(C(=O)Nc2ccc(Cl)cn2)C1 (stereo not given),15.1
9,CCCNC(=O)CNc1ccccc1OCCC(=O)OC,-7.23
10,Cc1ccc(CN(Cc2[nH]cnc2C)C2CC(C)(C)NC(C)(C)C2)o1,17.5
11,Cc1ccc(CNCC2Cn3nncc3CO2)s1 (stereo not given),-4.83
12,CC(C)c1nnc(CN2CCN(C(C)c3nc(C4CC4)no3)CC2)o1 (stereo not given),-3.84
13,CS(=O)(=O)N1CCOC2(CCCN(c3cnccn3)C2)C1 (stereo not given),-6.97
14,CCOc1nnc(CN(CC)CC(=O)NC(C)C)s1,-1.99
15,Cc1ccc(CNC(=O)N2CCOCC2C2CC2)cc1F (stereo not given),-8.34
16,Cc1ncc(CNC(=O)N(C)C2CCN(c3ccccc3)C2=O)s1 (stereo not given),3.88
17,Cc1[nH]c2c(F)cccc2c1CC(=O)N1CCCC(N)CC1 (stereo not given),14.1
18,CC(=O)NCc1ccc(-c2ccccc2C(=O)O)cn1,-1.2
19,CC(Cn1ccnc1)NC(=O)NCCc1cccs1 (stereo not given),-11.6
20,CCN(C(=O)CCCOC)C(c1ccc(Cl)cc1)c1ccccn1 (stereo not given),31.1
21,O=C(NCc1cccs1)[C@@H]1CC[C@@H]2[C@@H](CCN2C2CCOCC2)O1,-14.8
22,CN(C)CCNC(=O)c1cc2n(n1)CCN(C(=O)c1ccc[nH]1)C2,-7.1
23,O=C1CCCCN1Cc1cccc(OC(F)F)c1,4.41
